Test results published in patent US7323609B2, “Corrosion and gas hydrate inhibitors having improved water solubility and increased biodegradability” (Clariant Produkte (Deutschland) GmbH, priority 2003, dated 2008).

Tests used:
[1] = LPR test (corrosion inhibition, conditions similar to ASTM D 2776); design: concentration or dose not given beside the values
Description: The products were also tested in the LPR test (test conditions similar to ASTM D 2776).

[2] = Shell wheel test (corrosion inhibition); settings: 50 ppm of a 40% inhibitor solution; salt water/petroleum, pH 3.5, 40 rpm, 70° C., 24 hours; from mass reduction vs blank
Description: The compounds according to the invention were tested as corrosion inhibitors in the Shell wheel test. Coupons of carbon steel (DIN 1.1203 having 15 cm^2 surface area) were immersed in a salt water/petroleum mixture (9:1.5% NaCl solution, adjusted to pH 3.5 using acetic acid) and subjected to this medium at a rotation rate of 40 rpm at 70° C. for 24 hours. The dosage of the inhibitor was 50 ppm of a 40% solution of the inhibitor. The protection values were calculated from the mass reduction of the coupons, based on a blank value.
In the table which follows, “comparison 1” refers to a commercial residue amine, quat based on dicocoalkyldimethylammonium chloride and “comparison 2” to a commercial soya fatty acid amidopropyl-N,N-dimethylammonium carboxymethyl betaine described by EP-B-0 446 616 (prior art corrosion inhibitors).

Substance | Protection after 10 min [1] [%] | Protection after 30 min [1] [%] | Protection after 60 min [1] [%] | ø Protection % [2] [%]
oleyl+5 EO-ether carboxamido-N,N-dimethylamino-N-propylammonium N-methylcarboxyl betaine [Example 33] | 75.6 | 80.3 | 82.8 | 70.7
lauryl+3 EO-ether carboxamido-N,N-dimethylamino-N-propylammonium N-methylcarboxyl betaine [Example 35] | 74.4 | 80.2 | 84.3 | 75.9
C14/15-oxo alcohol+7 EO-ether carboxamido-N,N-dimethylamino-N-propylammonium N-methylcarboxyl betaine [Example 34] |  |  |  | 71.9
